The record followed here is patent US20240376090A1, “ISOXAZOLE DERIVATIVES AS MODULATORS OF THE 5-HT2A SEROTONIN RECEPTOR USEFUL FOR THE TREATMENT OF DISORDERED RELATED THERETO” (Arena Pharmaceuticals, Inc., priority 2020, published 2024).

Molecules are shown by their SMILES.

As a reminder, the Ki is the dissociation constant of the complex between target and ligand, obtained from inhibition or displacement. The IC50 is the concentration that inhibits the measured activity by half.

The target of experiment [1] is T1, 5-HT2A receptor (Homo sapiens (Human), UniProt P28223). The experiment is described as follows: Radioligand binding assay ([3H]5-HT competition), 5-HT2A. The note with it: [3H]5-HT radioligand, membranes of HEK293 cells expressing recombinant 5-HT2A; Ki from IC50 by Cheng-Prusoff; read-out: 5-HT2A serotonin binding Ki value.
T1 sequence (P28223 whole entry): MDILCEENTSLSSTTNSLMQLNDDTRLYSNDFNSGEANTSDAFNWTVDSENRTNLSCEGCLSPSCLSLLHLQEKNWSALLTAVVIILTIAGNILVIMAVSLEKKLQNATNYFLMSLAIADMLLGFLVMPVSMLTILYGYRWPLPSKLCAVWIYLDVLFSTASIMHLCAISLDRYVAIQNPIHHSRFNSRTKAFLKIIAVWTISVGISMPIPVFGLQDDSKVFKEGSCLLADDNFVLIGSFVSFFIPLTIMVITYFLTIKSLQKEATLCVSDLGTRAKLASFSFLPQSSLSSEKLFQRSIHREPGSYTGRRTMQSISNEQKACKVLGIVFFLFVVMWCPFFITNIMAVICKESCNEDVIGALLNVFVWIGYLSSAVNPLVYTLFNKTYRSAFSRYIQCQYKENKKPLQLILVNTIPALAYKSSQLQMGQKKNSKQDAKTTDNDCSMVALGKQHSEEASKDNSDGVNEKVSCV
The target of experiment [2] is T1, 5-HT2A receptor. Nature of the experiment: HTRF IP-One antagonist assay, 5-HT2A. Format: cell-based. The note with it: HEK293 cells stably expressing recombinant human receptor; IP accumulation with 80 nM 5-HT. Background: In TR-FRET formats the signal depends on donor and acceptor labels being close together.
The target in experiment [3] is 5-HT2B receptor (Homo sapiens (Human), UniProt P41595). Nature of the experiment: HTRF IP-One antagonist assay, 5-HT2B. Format: cell-based. The note with it: HEK293 cells stably expressing recombinant human receptor; IP accumulation with 80 nM 5-HT.
Chain of 5-HT2B receptor (P41595 whole entry): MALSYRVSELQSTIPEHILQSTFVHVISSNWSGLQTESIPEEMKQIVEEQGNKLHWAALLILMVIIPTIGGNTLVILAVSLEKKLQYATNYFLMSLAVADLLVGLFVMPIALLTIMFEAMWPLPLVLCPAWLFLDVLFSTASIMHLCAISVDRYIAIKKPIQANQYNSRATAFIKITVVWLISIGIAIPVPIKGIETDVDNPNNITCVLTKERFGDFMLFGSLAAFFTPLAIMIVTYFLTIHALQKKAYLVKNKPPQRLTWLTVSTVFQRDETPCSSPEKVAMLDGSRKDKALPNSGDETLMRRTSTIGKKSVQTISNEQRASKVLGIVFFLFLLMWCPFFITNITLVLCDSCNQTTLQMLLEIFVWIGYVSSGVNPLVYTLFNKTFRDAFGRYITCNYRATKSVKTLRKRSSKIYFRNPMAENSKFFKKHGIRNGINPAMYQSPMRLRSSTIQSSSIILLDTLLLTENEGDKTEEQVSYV
Experiment [4] has as its target 5-HT2C receptor (Homo sapiens (Human), UniProt P28335). The experiment is described as follows: HTRF IP-One antagonist assay, 5-HT2C. Format: cell-based. The note with it: HEK293 cells stably expressing recombinant human receptor; IP accumulation with 80 nM 5-HT. As for the experimental part: HEK293 cells stably expressing 5-HT2 receptors were generated using standard procedures. Cells were dilution cloned and clonal cell lines stably expressing the receptors at low levels were selected for pharmacology studies. In radioligand binding studies using a variety of radiolabeled probes, receptor densities in the 2A, 2B and 2C cell lines were estimated to be 50-70, 150-200, and 10-20 fmol/mg, respectively.
Inositol phosphate accumulation assays were performed using the HTRF IP-One assay system developed by Cisbio and generally followed the manufacturer's instructions. Briefly, HEK293 cells stably expressing recombinant human receptors were harvested and resuspended in phenol-red free OptiMEM (ThermoFisher), plated into 384-well assay plates (Perkin Elmer, ProxiPlate-Plus® Cat #6008280) at 10,000 cells/well in a volume of 10 μL/well, and incubated overnight at 37° C., 5% CO2. Test compounds were solubilized and serially diluted in DMSO, and then diluted into Assay Buffer (Tris HCl 20 mM, NaCl 150 mM, LiCl 40 mM, pargyline 25 μM, pH 8) containing 80 nM 5-HT. Test compounds were added to the cells (4 μL/well addition, maximal final assay concentration typically 10 μM) and plates, incubated for 2 hrs at 37° C./5% CO2 and then removed from the incubator and allowed to cool to room temperature for 30 minutes prior to addition of IP-One detection reagents. IP-One detection reagents (6 μL/well) were added and plates incubated for 1 hr at room temperature before reading on an HTRF compatible reader such as a Perkin Elmer EnVision® or BMG PheraStar®. Dose-response experiments utilized 10-point curves, typically starting at 10 μM, with 5-fold serial dilutions. Experiments were performed with triplicate data points and independent replicate experiments were performed to ensure data consistency.

Chain of 5-HT2C receptor (P28335 33-458): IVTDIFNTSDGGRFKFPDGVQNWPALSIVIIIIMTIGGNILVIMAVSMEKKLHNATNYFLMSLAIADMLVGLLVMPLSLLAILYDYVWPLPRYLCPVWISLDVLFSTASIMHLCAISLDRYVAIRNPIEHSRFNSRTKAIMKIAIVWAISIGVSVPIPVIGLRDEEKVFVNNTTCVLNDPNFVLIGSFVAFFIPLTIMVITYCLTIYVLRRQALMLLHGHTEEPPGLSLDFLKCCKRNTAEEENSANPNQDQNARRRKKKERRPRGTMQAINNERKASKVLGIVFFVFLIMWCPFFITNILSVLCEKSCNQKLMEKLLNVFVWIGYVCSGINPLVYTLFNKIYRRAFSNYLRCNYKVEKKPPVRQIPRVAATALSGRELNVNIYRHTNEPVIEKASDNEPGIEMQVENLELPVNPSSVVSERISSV

With `Cc1noc(C)c1-c1cc(NC(=O)c2ccc(F)cc2)ccc1OC1CNC1` [Compound 242, N-(4-(azetidin-3-yloxy)-3-(3,5-dimethylisoxazol-4-yl)phenyl)-4-fluorobenzamide], the Ki in experiment [1] stood at 2.1 nM. In addition, the IC50 in experiment [2] worked out at 44.2 nM; in experiment [3] it was 3390 nM; in experiment [4], 4920 nM.

As to `Cc1noc(C)c1-c1cc(NC(=O)c2cccc(F)c2)ccc1OC1CNC1` [Compound 243, N-(4-(azetidin-3-yloxy)-3-(3,5-dimethylisoxazol-4-yl)phenyl)-3-fluorobenzamide], the Ki in experiment [1] was found to be 1.07 nM. Moreover, the IC50 in experiment [2] was 16.5 nM; in experiment [3], not below 100000 nM; in experiment [4], 6210 nM.

In the case of `COc1cccc(C(=O)Nc2ccc(OC3CNC3)c(-c3c(C)noc3C)c2)c1` [Compound 244, N-(4-(azetidin-3-yloxy)-3-(3,5-dimethylisoxazol-4-yl)phenyl)-3-methoxybenzamide], the Ki in experiment [1] was 0.85 nM. Further, the IC50 in experiment [2] is 19 nM; in experiment [3], not below 100000 nM; in experiment [4], not below 100000 nM.

`Cc1noc(C)c1-c1cc(NC(=O)C2(F)CC2)ccc1OC1CNC1` [Compound 245, N-(4-(azetidin-3-yloxy)-3-(3,5-dimethylisoxazol-4-yl)phenyl)-1-fluorocyclopropane-1-carboxamide]: in experiment [1], the Ki turned out to be 2.05 nM. In addition, the IC50 in experiment [2] was 37.9 nM; in experiment [3], not below 100000 nM; in experiment [4], not below 100000 nM.
